Data as given in patent US20250326771A1, “PIPERAZINE DERIVATIVES USEFUL IN HIV THERAPY” (VIIV HEALTHCARE COMPANY, priority 2022, published 2025).
Read-outs that look alike come from different tables or passages of the source.

Tests used:
[1] = system: Jurkat HIV-luciferase clones; test: Jurkat latency reversal assay; type: cell-based; conditions: Homo sapiens, 48 h; Jurkat latency reversal assay potency; read-out: Jurkat pEC50 (converted)
Summary of the method: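 Compounds are titrated 3-fold over 14 points from 10 μM in duplicate at 0.5% DMSO. Clones C16, 115 and N6, grown with 500 nM EFV, are co-incubated for 48 h at 37° C. Virally driven luciferase is read by luminescence, and EC50 and maximal percent activation versus vehicle come from a four-parameter model.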

cIAP1-BIR3 = cIAP1-BIR3 (Homo sapiens (Human), UniProt Q13490); test: BIR binding assay (FRET competition), cIAP1 BIR3; conditions: for cIAP1 BIR3 vs BIR2 separation window: fold separation (FS) for cIAP1
Summary of the method: (§1)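 Compounds tested as 15-point, 3-fold series displacing 200 nM AlexaFluor647-labelled SMAC peptide from His-tagged BIR domain (cIAP1-BIR3 50 nM; cIAP1-BIR2 and cIAP2-BIR2 325 nM; XIAP-BIR3 100 nM), pH 7.4, 60 min. Eu-W1024 (2 nM) added 30 min; emission ratio fitted for IC50.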

cIAP1-BIR2 = cIAP1-BIR2 (Homo sapiens (Human), UniProt Q13490); test: BIR binding assay (FRET competition), cIAP1 BIR2
Summary of the method: as §1

cIAP2-BIR3 = cIAP2-BIR3 (Homo sapiens (Human), UniProt Q13489); test: BIR binding assay (FRET competition), cIAP2 BIR3; conditions: for cIAP2 BIR3 vs BIR2 separation window: fold separation (FS) for cIAP2
cIAP2-BIR2 = cIAP2-BIR2 (Homo sapiens (Human), UniProt Q13489); test: BIR binding assay (FRET competition), cIAP2 BIR2
Summary of the method: as §1

XIAP-BIR3 = XIAP-BIR3 (Homo sapiens (Human), UniProt P98170); test: BIR binding assay (FRET competition), XIAP BIR3; conditions: for XIAP BIR3 vs BIR2 separation window: fold separation (FS) for XIAP
Summary of the method: as §1

XIAP-BIR2 = XIAP-BIR2 (Homo sapiens (Human), UniProt P98170); test: BIR binding assay (FRET competition), XIAP BIR2
Protocol: The BIR domain binding assays are FRET based competition assays that utilize His-tagged versions of each of the BIR2 and BIR3 domains from cIAP1, cIAP2, and XIAP (each domain assayed separately) each at a custom optimal concentration and a probe, 200 nM SMAC/DIABLO peptide AVPIAQKSE labelled with AlexaFluor647 (part #crb 1110326h, Discovery Peptides). The assay is conducted in 50 mM HEPES, […], 1 mM CHAPS, 5% Glycerol, 1 mM DTT, in dI water with a final pH of 7.4 and final volume of 20 uL. Final protein domain concentrations are: 50 nM cIAP1-BIR3 (Part #APT-11-370 Reaction Biology), 100 nM XIAP-BIR3 (Part #APT-11-351 Reaction Biology), 200 nM XIAP-BIR2 (Part #APT-11-470 Reaction Biology), 325 nM cIAP2-BIR2 (Part #APT-11-489 Reaction Biology), 50 nM cIAP2-BIR3 (Part #APT-11-372 Reaction Biology), 325 nM cIAP1-BIR2 (Part #APT-11-487 Reaction Biology). Compounds were plated using a HP Tecan D300 printer in a final total volume of 202 nl and DMSO concentration normalized across the 15-point, 3-fold dilution series. Peptide and probe were prepared at 2× relative to the concentrations above in binding buffer, 10 uL added to the prepared compound plates, and incubated for 60 minutes. LANCE Eu-W1024 (part #AD0401 Perkin Elmer #, vendor) was prepared at 2× concentration in binding buffer for final concentration of 2 nM, 10 uL added to each well, and plates incubated for 30 minutes. Plates were read on an ENVISION multifunction plate reader with […] laser excitation to obtain the 615 nm/665 nm emission ratio as indicative of probe:protein proximity. Data was analyzed using GraphPad PRISM and curves fit using log(inhibitor) vs. response—Variable slope (four […] method to obtain IC50 and pIC50 values.

[2] = FRET competition binding, read-out: XIAP BIR2 (pIC50) (converted)
[3] = FRET competition, read-out: XIAP BIR2 (pIC50) (converted)

Chain of XIAP-BIR2 (P98170 124-240): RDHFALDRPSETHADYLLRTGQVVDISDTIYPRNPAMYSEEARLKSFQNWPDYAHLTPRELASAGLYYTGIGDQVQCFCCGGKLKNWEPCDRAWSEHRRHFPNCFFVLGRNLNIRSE
Chain of cIAP2-BIR3 (Q13489 238-349): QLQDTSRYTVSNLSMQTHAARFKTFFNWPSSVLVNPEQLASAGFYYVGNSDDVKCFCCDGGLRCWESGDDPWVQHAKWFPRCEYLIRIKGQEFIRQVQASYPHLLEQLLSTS
Chain of cIAP2-BIR2 (Q13489 158-242): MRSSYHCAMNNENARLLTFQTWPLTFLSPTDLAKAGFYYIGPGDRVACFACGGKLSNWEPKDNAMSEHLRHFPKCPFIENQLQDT
Chain of cIAP1-BIR3 (Q13490 253-363): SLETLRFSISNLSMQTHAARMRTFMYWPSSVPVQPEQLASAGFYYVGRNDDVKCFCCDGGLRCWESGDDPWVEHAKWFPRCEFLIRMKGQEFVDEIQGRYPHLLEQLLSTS
Chain of cIAP1-BIR2 (Q13490 173-257): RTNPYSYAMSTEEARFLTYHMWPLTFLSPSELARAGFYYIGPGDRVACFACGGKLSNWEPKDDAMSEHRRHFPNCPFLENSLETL
Chain of XIAP-BIR3 (P98170 241-356): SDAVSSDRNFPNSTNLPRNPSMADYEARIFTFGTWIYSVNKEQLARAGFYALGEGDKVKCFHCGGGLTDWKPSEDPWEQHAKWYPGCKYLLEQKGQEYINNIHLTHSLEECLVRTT

SMILES | EC50 [1] [nM] | IC50 (cIAP1-BIR3) [nM] | cIAP1 BIR3 vs BIR2 separation window (cIAP1-BIR3) | IC50 (cIAP1-BIR2) [nM] | IC50 (cIAP2-BIR3) [nM] | cIAP2 BIR3 vs BIR2 separation window (cIAP2-BIR3) | IC50 (cIAP2-BIR2) [nM] | IC50 (XIAP-BIR3) [nM] | XIAP BIR3 vs BIR2 separation window (XIAP-BIR3) | IC50 (XIAP-BIR2; [2]) [nM] | IC50 (XIAP-BIR2; [3]) [nM] | IC50 (XIAP-BIR2) [nM]
C[C@@H]1CN(CC(=O)N2CC(C)(C)c3[nH]c(=O)c(Cc4ccc(F)cc4)cc32)[C@@H](CN2CCO[C@H](C(=O)N(C)CCCCN(C)C(=O)[C@@H]3CN(C[C@H]4CN[C@H](C)CN4CC(=O)N4CC(C)(C)c5[nH]c(=O)c(Cc6ccc(F)cc6)cc54)CCO3)C2)CN1 [Example 127, (2S,2'S)-N,N′-(butane-1,4-diyl)bis(4-(((2R,5R)-1-(2-(6-(4-fluorobenzyl)-3,3-dimethyl-5-oxo-2,3,4,5-tetrahydro-1H-pyrrolo[3,2-b]pyridin-1-yl)-2-oxoethyl)-5-methylpiperazin-2-yl)methyl)-N-methylmorpholine-2-carboxamide)] | 63.1 to 316 | 7.94 to 15.8 | +++ (10,000>FS>1,000) | 1000 to 3160 | 7.94 to 15.8 | +++ (10,000>FS>1,000) | 1000 to 3160 | 7.94 to 15.8 | ++++ (FS>10,000) | 10000 to 51300 |  | 
C[C@@H]1CN(CC(=O)N2CC(C)(C)c3[nH]c(=O)c(Cc4ccc(F)cc4)cc32)[C@@H](CN2CCC(CCN(C)C(=O)c3ccc(C(=O)N(C)CCC4CCN(C[C@H]5CN[C@H](C)CN5CC(=O)N5CC(C)(C)c6[nH]c(=O)c(Cc7ccc(F)cc7)cc65)CC4)cc3)CC2)CN1 [Example 104, N^1,N^4-bis(2-(1-(((2R,5R)-1-(2-(6-(4-fluorobenzyl)-3,3-dimethyl-5-oxo-2,3,4,5-tetrahydro-1H-pyrrolo[3,2-b]pyridin-1-yl)-2-oxoethyl)-5-methylpiperazin-2-yl)methyl)piperidin-4-yl)ethyl)-N^1,N^4-dimethylterephthalamide] | 63.1 to 316 | 1.38 to 7.94 | +++ (10,000>FS>1,000) | 1000 to 3160 | 1.38 to 7.94 | +++ (10,000>FS>1,000) | 1000 to 3160 | 1.38 to 7.94 | ++++ (FS>10,000) | 10000 to 51300 |  | 
C[C@@H]1CN(CC(=O)N2CC(C)(C)c3[nH]c(=O)c(Cc4ccc(F)cc4)cc32)[C@@H](CN2CCN(C(=O)c3cccnc3-c3ncccc3C(=O)N3CCN(C[C@H]4CN[C@H](C)CN4CC(=O)N4CC(C)(C)c5[nH]c(=O)c(Cc6ccc(F)cc6)cc54)[C@H](C)C3)C[C@H]2C)CN1 [Example 17, 1,1′-(2,2′-((3R,3′R,6R,6′R)-(((2R,2′R)-([2,2′-bipyridine]-3,3′-dicarbonyl)bis(2-methylpiperazine-4,1-diyl))bis(methylene))bis(3-methylpiperazine-6,1-diyl))bis(acetyl))bis(6-(4-fluorobenzyl)-3,3-dimethyl-1,2,3,4-tetrahydro-5H-pyrrolo[3,2-b]pyridin-5-one)] | 316 to 3310 | 1.38 to 7.94 | ++ (1,000>FS>100) | 22.4 to 1000 | 1.38 to 7.94 | ++ (1,000>FS>100) | 22.4 to 1000 | 1.38 to 7.94 | ++++ (FS>10,000) | 10000 to 51300 |  | 
C[C@@H]1CN(CC(=O)N2CC(C)(C)c3[nH]c(=O)c(Oc4ccccc4)cc32)[C@@H](CN2CCO[C@H](C(=O)NCc3ccc(CNC(=O)[C@@H]4CN(C[C@H]5CN[C@H](C)CN5CC(=O)N5CC(C)(C)c6[nH]c(=O)c(Oc7ccccc7)cc65)CCO4)cc3)C2)CN1 [Compound 185, (2S,2′S)-N,N′-(1,4-phenylenebis(methylene)) bis(4-(((2R,5R)-1-(2-(3,3-dimethyl-5-oxo-6-phenoxy-2,3,4,5-tetrahydro-1H-pyrrolo[3,2-b]pyridin-1-yl)-2-oxoethyl)-5-methylpiperazin-2-yl)methyl)morpholine-2-carboxamide)] | 316 to 3310 | 15.8 to 31.6 | +++ (10,000>FS>1,000) | 3160 to 10000 | 1.38 to 7.94 | ++++ (FS>10,000) | 10000 to 51300 | 31.6 to 501 | +++ (10,000>FS>1,000) |  | 10000 to 51300 | 
C[C@@H]1CN(CC(=O)N2CC(C)(C)c3[nH]c(=O)c(Cc4ccc(F)cc4)cc32)[C@@H](CN2CCC(CN(C)C(=O)Cc3ccc(C(=O)N(C)CC4CCN(C[C@H]5CN[C@H](C)CN5CC(=O)N5CC(C)(C)c6[nH]c(=O)c(Cc7ccc(F)cc7)cc65)CC4)cc3)CC2)CN1 [Example 97, N-((1-(((2R,5R)-1-(2-(6-(4-fluorobenzyl)-3,3-dimethyl-5-oxo-2,3,4,5-tetrahydro-1H-pyrrolo[3,2-b]pyridin-1-yl)-2-oxoethyl)-5-methylpiperazin-2-yl)methyl)piperidin-4-yl)methyl)-4-(2-(((1-(((2R,5R)-1-(2-(6-(4-fluorobenzyl)-3,3-dimethyl-5-oxo-2,3,4,5-tetrahydro-1H-pyrrolo[3,2-b]pyridin-1-yl)-2-oxoethyl)-5-methylpiperazin-2-yl)methyl)piperidin-4-yl)methyl)(methyl)amino)-2-oxoethyl)-N-methylbenzamide] | 63.1 to 316 | 1.38 to 7.94 | ++++ (FS>10,000) | 1000 to 3160 | 1.38 to 7.94 | +++ (10,000>FS>1,000) | 3160 to 10000 | 7.94 to 15.8 | ++++ (FS>10,000) | 10000 to 51300 |  | 
C[C@@H]1CN(CC(=O)N2CC(C)(C)c3[nH]c(=O)c(Cc4ccc(F)cc4)cc32)[C@@H](CN2CCO[C@H](C(=O)NCC(C)(C)CNC(=O)[C@@H]3CN(C[C@H]4CN[C@H](C)CN4CC(=O)N4CC(C)(C)c5[nH]c(=O)c(Cc6ccc(F)cc6)cc54)CCO3)C2)CN1 [Compound 139, (2S,2′S)-N,N′-(2,2-dimethylpropane-1,3-diyl)bis(4-(((2R,5R)-1-(2-(6-(4-fluorobenzyl)-3,3-dimethyl-5-oxo-2,3,4,5-tetrahydro-1H-pyrrolo[3,2-b]pyridin-1-yl)-2-oxoethyl)-5-methylpiperazin-2-yl)methyl)morpholine-2-carboxamide)] | 63.1 to 316 | 7.94 to 15.8 | +++ (10,000>FS>1,000) | 1000 to 3160 | 7.94 to 15.8 | +++ (10,000>FS>1,000) | 1000 to 3160 | 31.6 to 501 | +++ (10,000>FS>1,000) |  | 10000 to 51300 | 
C[C@@H]1CN(CC(=O)N2CC(C)(C)c3ncc(Cc4ccccc4)cc32)[C@@H](CN2CCO[C@H](COc3cccc(OC[C@@H]4CN(C[C@H]5CN[C@H](C)CN5CC(=O)N5CC(C)(C)c6ncc(Cc7ccccc7)cc65)CCO4)c3)C2)CN1 [Compound 150] | 12.6 to 63.1 | 7.94 to 15.8 | +++ (10,000>FS>1,000) | 3160 to 10000 | 7.94 to 15.8 | ++++ (FS>10,000) | 10000 to 51300 | 15.8 to 31.6 | ++++ (FS>10,000) |  |  | 10000 to 51300
